Where a name gives a salt, the structure may show the parent alone.
Biological target: T1, Hormone-sensitive lipase (HSL) (Homo sapiens, UniProt Q05469)
T1 construct: made in house
T1 sequence (Q05469 1-775 isoform Q05469-2): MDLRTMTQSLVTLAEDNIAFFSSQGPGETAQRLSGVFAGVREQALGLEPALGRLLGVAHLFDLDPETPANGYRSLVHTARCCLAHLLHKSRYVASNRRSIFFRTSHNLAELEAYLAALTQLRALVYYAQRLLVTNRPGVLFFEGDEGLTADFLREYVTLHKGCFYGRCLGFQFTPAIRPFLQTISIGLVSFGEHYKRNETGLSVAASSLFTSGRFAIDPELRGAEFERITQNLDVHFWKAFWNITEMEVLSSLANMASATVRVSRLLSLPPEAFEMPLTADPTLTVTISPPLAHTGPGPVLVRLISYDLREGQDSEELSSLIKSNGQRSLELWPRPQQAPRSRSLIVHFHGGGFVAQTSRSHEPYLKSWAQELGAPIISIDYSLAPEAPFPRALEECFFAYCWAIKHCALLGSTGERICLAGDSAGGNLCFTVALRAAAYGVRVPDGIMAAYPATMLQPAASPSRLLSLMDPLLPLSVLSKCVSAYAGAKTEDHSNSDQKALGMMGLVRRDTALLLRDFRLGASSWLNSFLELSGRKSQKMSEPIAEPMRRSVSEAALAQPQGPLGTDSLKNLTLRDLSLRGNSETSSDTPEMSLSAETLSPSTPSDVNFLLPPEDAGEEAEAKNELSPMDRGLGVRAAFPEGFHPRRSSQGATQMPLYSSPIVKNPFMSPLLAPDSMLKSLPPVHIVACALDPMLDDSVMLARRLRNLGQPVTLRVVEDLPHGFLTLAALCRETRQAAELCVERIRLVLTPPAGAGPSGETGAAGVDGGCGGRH
Test: 3190.1: percent inhibition of hormone sensitive lipase, fluorochrome-labeled triacylglyceride emulsion
Type: biochemical
Settings: 10 μM sample concentration; preincubated 30 min at 25° C.; 120 min incubation at 37° C.; remaining activity; read-out: 3190.1 HSL_FL % ACTIVITY (% activity relative to non-inhibited sample)
Text: The Hormone-sensitive lipase was provided by Dr. Cecilia Holm, from Lund University Sweden or produced and purified by Novo Nordisk (NN) using the reagents and protocols used by Dr. Holm. The substrates used are: ^3H-labeled triolein (TO) from Amersham, Buckinghamshire, U.K. cat No. TRA191; 5-20 Ci/mmol dissolved in toluene, triolein (Sigma, Cat. No. T-1740), fluorochrome-labeled triacylglyceride (cis-octadec-9-enoic acid 2-[12-(7-nitrobenzo[1,2,5]oxadiazol-4-ylamino)dodecanoyloxy]-1-cis-octadec-9-enoyloxymethyl-ethyl ester) prepared by Novo Nordisk (NN) by conventional methods, and 1,3-(di[^3H]-stearin), 2-(PEG-Biotin)glycerol prepared in collaboration with Amersham Pharmacia Biotech, UK and described in WO 01/073442. Phosphatidyl choline (PC) and phosphatidyl inositol (PI) are from Sigma (St Luis MO cat. Nos. P-3556 and P-5954 respectively). All other reagents are of commercial grade and obtained from various commercial sources.
3190.1: Assay for determination of percent inhibition of hormone sensitive lipase by compound at 10 μM sample concentration.
A lipid emulsion with fluorochrome-labeled triacylglyceride and phospholipid is used as substrate with a standard concentration of highly purified HSL (12 μg/mL initial concentration corresponding to 600 ng/mL final concentration). BSA is added as product acceptor. The transfer of the fluorochrome from the lipid phase to the water (BSA) phase changes the fluorescent properties of the fluorochrome. The changes can be monitored on a fluorimeter with an excitation wavelength of 450 nm and an emission wavelength of 545 nm.
Compound and HSL (20 μL compound, 10 μL enzyme and 70 μL PED-BSA buffer) is preincubated for 30 min at 25° C. before addition of substrate (100 μL). Amount of formed product is measured after 120 min incubation at 37° C.
Results are given as percent activity relative to a non-inhibited sample (no compound).

First: O=C(Oc1ccc(Cc2ccc(C(F)(F)F)cc2)cc1)N1CCN(CCc2ccccn2)CC1 [Example 1, 4-(2-Pyridin-2-yl-ethyl)-piperazine-1-carboxylic acid 4-(4-trifluoromethyl-benzyl)-phenyl ester]
Second: O=C(Oc1ccc(Cc2ccc(C(F)(F)F)cc2)cc1)N1CCN(Cc2ccccn2)CC1 [Example 2, 4-Pyridin-2-ylmethyl-piperazine-1-carboxylic acid 4-(4-trifluoromethyl-benzyl)-phenyl ester]
The activity at 10 µM of the first is higher: 6% for the first, 4% for the second.

Going from `CC1(C)CC(=O)N(c2ccc(OC(=O)N3CCN(Cc4ccccn4)CC3)nc2)C(=O)C1` [Example 4, 4-Pyridin-2-ylmethyl-piperazine-1-carboxylic acid 4,4-dimethyl-2,6-dioxo-3,4,5,6-tetrahydro-2H-[1,3′]bipyridinyl-6′-yl ester] to `CC1(C)CC(=O)N(CCc2ccc(OC(=O)N3CCN(CCc4ccccn4)CC3)cc2)C(=O)C1` [Example 7, 4-(2-Pyridin-2-yl-ethyl)-piperazine-1-carboxylic acid 4-[2-(4,4-dimethyl-2,6-dioxo-piperidin-1-yl)-ethyl]-phenyl ester], the activity at 10 µM falls from 64% to 8%.

First: O=C(Oc1ccc(Oc2ccc(C(F)(F)F)cn2)cc1)N1CCN(CCCc2cccnc2)CC1 [Example 8, 4-(3-Pyridin-3-yl-propyl)-piperazine-1-carboxylic acid 4-(5-trifluoromethyl-pyridin-2-yloxy)-phenyl ester]
Second: O=C(Oc1ccc(Oc2ccc(C(F)(F)F)cn2)cc1)N1CCN(CCc2cccnc2)CC1 [Example 9, 4-(2-Pyridin-3-yl-ethyl)-piperazine-1-carboxylic acid 4-(5-trifluoromethyl-pyridin-2-yloxy)-phenyl ester]
The activity at 10 µM of the first is lower: 1% for the first, 2% for the second.

Test system: not given
Test: not given
Settings: not given

`O=C(Oc1ccc(Oc2ccc(C(F)(F)F)cn2)cc1)N1CCN(CCCc2ccccn2)CC1` and `O=C(Oc1ccc(Oc2ccc(C(F)(F)F)cn2)cc1)N1CCN(CCCc2cccnc2)CC1` (as salt: hydrochloride) [Example 8, 4-(3-Pyridin-3-yl-propyl)-piperazine-1-carboxylic acid 4-(5-trifluoromethyl-pyridin-2-yloxy)-phenyl ester] cannot be ordered by melting point: 204 to 205 °C for the first, 203 to 208 °C for the second.
